Laboratory results from PMC6532652, “Enantiospecific Synthesis, Chiral Separation, and Biological Activity of Four Indazole-3-Carboxamide-Type Synthetic Cannabinoid Receptor Agonists and Their Detection in Seized Drug Samples” (Frontiers in Chemistry, 2019).

What was measured:
CB2 = target: T1, CB2 (Homo sapiens, UniProt P34972); assay: NanoLuc complementation beta-arrestin […] recruitment, live cells; assay type: cell-based; conditions: read-out: CB2 / EC50 (nM) (± 95% CI)
T1 construct: gene CNR2; co-expressed with beta-arrestin 2 fused to the complementary fragment
T1 sequence (P34972 whole entry, the tested form may be a part): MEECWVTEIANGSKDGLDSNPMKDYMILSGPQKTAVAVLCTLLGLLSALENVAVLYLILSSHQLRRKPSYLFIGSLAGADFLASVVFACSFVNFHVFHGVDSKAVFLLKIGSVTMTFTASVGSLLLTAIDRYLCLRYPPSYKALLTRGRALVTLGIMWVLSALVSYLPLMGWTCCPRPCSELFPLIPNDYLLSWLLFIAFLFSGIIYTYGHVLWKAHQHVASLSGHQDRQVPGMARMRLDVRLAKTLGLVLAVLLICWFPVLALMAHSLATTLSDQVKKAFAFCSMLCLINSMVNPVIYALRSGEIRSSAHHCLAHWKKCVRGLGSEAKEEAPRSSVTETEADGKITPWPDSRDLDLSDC

CB1 = target: T2, CB1 (Homo sapiens, UniProt P21554); assay: as above; assay type: cell-based; conditions: read-out: CB1 / EC50 (nM) (± 95% CI)
T2 construct: gene CNR1; co-expressed with beta-arrestin 2 fused to the complementary fragment
T2 sequence (P21554 whole entry, the tested form may be a part): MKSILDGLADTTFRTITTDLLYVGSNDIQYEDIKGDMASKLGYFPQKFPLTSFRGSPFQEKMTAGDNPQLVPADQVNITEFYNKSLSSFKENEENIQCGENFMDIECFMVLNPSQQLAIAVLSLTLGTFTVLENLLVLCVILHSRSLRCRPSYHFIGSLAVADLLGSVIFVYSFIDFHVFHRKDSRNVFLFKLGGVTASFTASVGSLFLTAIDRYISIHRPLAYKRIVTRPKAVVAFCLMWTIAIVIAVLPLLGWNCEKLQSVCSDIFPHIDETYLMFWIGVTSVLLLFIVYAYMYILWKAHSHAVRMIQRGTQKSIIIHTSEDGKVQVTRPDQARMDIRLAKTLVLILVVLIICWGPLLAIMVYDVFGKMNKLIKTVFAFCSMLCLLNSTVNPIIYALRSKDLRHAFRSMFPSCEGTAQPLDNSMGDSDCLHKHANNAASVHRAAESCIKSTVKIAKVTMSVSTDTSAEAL

Row | SMILES | EC50 (CB2) [nM] | EC50 (CB1) [nM]
1 | CC(C)[C@H](NC(=O)c1nn(Cc2ccc(F)cc2)c2ccccc12)C(N)=O [compound 1, N-(2S)-(1-amino-3-methyl-1-oxobutan-2-yl)-1-(4-fluorobenzyl)-1H-indazole-3-carboxamide] | 1.6 | 12.9
2 | COC(=O)[C@H](NC(=O)c1nn(CCCCCF)c2ccccc12)C(C)(C)C [compound 3, (R)-5F-MDMB-PINACA] | 6.87 | 131
3 | COC(=O)[C@@H](NC(=O)c1nn(Cc2ccc(F)cc2)c2ccccc12)C(C)C [compound 2, methyl (2S)-2-(1-(4-fluorobenzyl)-1H-indazole-3-carboxamido)-3-methylbutanoate] | 0.77 | 9.11
4 | CC(C)[C@H](NC(=O)c1nn(CC2CCCCC2)c2ccccc12)C(N)=O [compound 4, N-(2S)-(1-amino-3-methyl-1-oxobutan-2-yl)-1-(cyclohexylmethyl)-1H-indazole-3-carboxamide] | 1.75 | 6.16
5 | CC(C)[C@@H](NC(=O)c1nn(CC2CCCCC2)c2ccccc12)C(N)=O [compound 4, (R)-AB-CHMINACA] | 33.6 | 319
6 | CC(C)[C@@H](NC(=O)c1nn(Cc2ccc(F)cc2)c2ccccc12)C(N)=O [compound 1, (R)-AB-FUBINACA] | 102 | 1480
7 | COC(=O)[C@H](NC(=O)c1nn(Cc2ccc(F)cc2)c2ccccc12)C(C)C [compound 2, (R)-AMB-FUBINACA] | 1.19 | 55.8
8 | CCCCCn1cc(C(=O)c2cccc3ccccc23)c2ccccc21 [compound 19, JWH-018, reference compound] | 9.71 | 45.1
9 | COC(=O)[C@@H](NC(=O)c1nn(CCCCCF)c2ccccc12)C(C)(C)C [compound 3, (S)-5F-MDMB-PINACA] | 1.46 | 1.78
